Assay results taken from patent US9642922B2, “Caspase-triggered nano-aggregation probes and methods of use” (The Board of Trustees of the Leland Stanford Junior …, priority 2013, dated 2017).
Numbered stars: 1 amine (or outer) side, 2 acyl side, 3 side chain; on linkers, the order of the positions; unused ones are H or OH. Square brackets hold non-standard residues; d marks the D form. Peptide text beside a SMILES is read from it. * marks the point of attachment. DOTA = O=C(O)CN1CCN(CC(=O)O)CCN(CC(=O)*)CCN(CC(=O)O)CC1; X1 = O=C(C1CSC(c2nc3ccc(N[*:1])cc3s2)=N1)[*:2]; X2 = N#Cc1ccc2cc(OCCCN*)ccc2n1; SEt = CCS*

Assays:
[1] = biological target: T1, recombinant human caspase-7 (Homo sapiens, UniProt P55210); assay: HPLC enzyme specificity assay of C-SNAF, caspase-7; type: biochemical; details: 25 μM probe, 0.735 μg/ml enzyme
T1 construct: purchased Calbiochem; host or cells: E. coli
Description: (§1) The specificity of C-SNAF towards other representative cysteine proteases such as caspase-7, caspase-9, cathepsin B, and legumain was examined.
(§2) Caspase (human, recombinant from E. coli) assays were performed for caspase-3 (4.9×10^−3 U; 7.35×10^−4 mg, Sigma), −7 (18.3 U; 7.35×10^−4 mg, Calbiochem), and −9 (0.3 U; 7.35×10^−4 mg, Calbiochem). All caspase assays were conducted in caspase buffer with 50 mM HEPES, 100 mM NaCl, 1 mM EDTA, 10 mM TCEP, 10% glycerol, and 0.1% CHAPS at pH 7.4. Cathepsin B (human liver; 0.27 U; 7.35×10^−4 mg, Calbiochem) and Legumain (human, recombinant from mouse myeloma cell line; >250 pmol/min/μg; 7.35×10^−4 mg, R&D Systems) were conducted in reaction buffer with 50 mM sodium acetate, 50 mM NaCl, 0.5 mM EDTA and 10 mM TCEP at pH 5.5. C-SNAF was diluted in the respective enzyme reaction buffer (25 μM, 1 mL) and remained at room temperature for 10 min, to which was then added the respective enzymes. Reactions were performed at 37° C., and monitored by HPLC hourly. The percentage conversion of the reaction was calculated based on the percentage of peak area of C-SNAF-cycl in the HPLC trace at 675 nm UV detection, which indicated the efficacy of enzyme cleavage of C-SNAF.

[2] = biological target: T2, legumain (Homo sapiens, UniProt Q99538); assay: HPLC enzyme specificity assay of C-SNAF, legumain; type: biochemical; details: 25 μM probe, 0.735 μg/ml enzyme, pH 5.5
T2 construct: purchased R&D Systems; host or cells: mouse myeloma cell line
Description: as §1, §2

[3] = test system: STS-induced apoptotic HeLa cells; assay: Flow cytometry of STS-induced apoptotic HeLa cells labeled with probes; type: cell-based, human
Description: Approximately 10^5 HeLa cells in 1 mL DMEM medium were seeded onto 12-well plates. […] For the inhibitor blocking experiment, the STS-treated cells were first incubated with the caspase inhibitor Z-VAD-fmk (50 μM, R&D Systems) for 30 min, and then 2 μM C-SNAF was added. All cells incubations were 24 h, followed by staining with FLICA (FAM) after trypsinization. After washing with PBS (1×) three times, the cell pellets were resuspended in 300 μL PBS and applied for flow cytometry analysis using the FITC and Cy5.5 channels. The cell number for each flow cytometry analysis was approximately 5000 to 10000, and the data was processed using FlowJo software.

[4] = Blood circulation and elimination in healthy nude mice; details: 5 nmol i.v.
[5] = Water proton r1 relaxivity measurement; type: physicochemical; details: 1 T
Description: Water proton r1 relaxivities of probe 15 and 1-ctrl (19) before and after caspase-3 incubation were then measured at 1, 1.5 and 3 T. For comparison, the isolated cyclized products 2-I and 2-II were also measured.
A series of solutions containing contrast agents with five different concentrations (0.05-0.5 mM) in Caspase buffer (pH 7.4) were treated with or without Casp-3 (50 nM) at 37° C. overnight. The solutions were placed in PCR tubes, bundled together, and MR-imaged at 1 T (Bruker Icon, Bruker BioSpin Corp.), […], 1.5 and 3 T (Signa HDx, GE Healthcare) at room temperature.
The scanning procedure began with a localizer and then consisted of a series of inversion-prepared fast spin echo scans, identical in all aspects (TR 8000 ms (6000 ms for Bruker Icon), TE minimum, field of view 6 cm, slice thickness 2 mm, matrix 128×128, NEX 1) except for the inversion time (TI) that was varied as: 4000, 2400, 1200, 800, 600, 400, 300, 200, 100, and 50 ms. For quantitative data analysis, the acquired MR images were transferred as DICOM images to an offline workstation, and signal intensities were extracted from each of the 5 samples at each of the 10 TI times by manual region of interest (ROI) placement and voxel averaging within the ROI.
Signal intensity versus TI relationships were fit to the following exponential T1 recovery model by non-linear least squares regression: SI (TI)=S0[1−2*exp(−TI/T1)+exp(−TR/T1)]. Relaxation rates (R1) were determined as 1/T1. Longitudinal relaxivities (r1, units of mM^−1s^−1) were calculated as the slope of R1 vs [Gd] after the determination of true Gd concentration of each sample by the ICP-MS measurement.

[6] = biological target: T3, cathepsin B (Homo sapiens, UniProt P07858); assay: T1 measurement of probe 15 with cathepsin B; type: biochemical; details: probe 208 μM, protease 50 nM, 1 T
T3 construct: Cathepsin B (human liver; 0.27 U; 7.35×10^−4 mg, Calbiochem); purchased Calbiochem; host or cells: human liver (tissue-derived)
Description: The enzyme specificity of probe 15 was studied by measuring the T1 value resulting from probe incubation (208 μM) with any of five relevant subcellular proteases (caspase-3, -7, -9, cathepsin B and legumain) in enzyme buffer. […] The reduced T1 value in solution was inhibited by the caspase inhibitor Z-VAD-fmk (50 μM).
Cathepsin B (human liver; 0.27 U; 7.35×10^−4 mg, Calbiochem) and Legumain (human, recombinant from mouse myeloma cell line; >250 pmol/min/μg; 7.35×10^−4 mg, R&D Systems) were conducted in reaction buffer with 50 mM sodium acetate, 50 mM NaCl, 0.5 mM EDTA and 10 mM TCEP at pH 5.5. The C-SNAF was diluted in the respective enzyme reaction buffer (25 μM, 1 mL) and remained at room temperature for 10 min, to which was added respective enzymes.

[7] = test system: HeLa cells; assay: ICP-MS cellular uptake of Gd in HeLa cells; type: cell-based, human; details: 250 μM probe, 24 h
Description: The cellular uptake of Gd was studied by inductively-coupled plasma mass spectrometry (ICP-MS) analysis of the amount of Gd in viable and apoptotic cells after incubation with probe 15 (50-250 μM) for 24 h. […] This uptake enhancement was inhibitable by Z-VAD-fmk (50 μM), confirming the caspase-3-dependent accumulation of probe 15 in apoptotic cells.

[8] = test system: HeLa cell pellets; assay: MRI T1 of HeLa cell pellets at 1 T; type: cell-based, human; details: 250 μM, 24 h
Description: Thus, higher caspase-3 activity in apoptotic cells can trap probe 15 inside cells, resulting in higher MRI contrast for cell apoptosis imaging.

T2 sequence (Q99538 18-323): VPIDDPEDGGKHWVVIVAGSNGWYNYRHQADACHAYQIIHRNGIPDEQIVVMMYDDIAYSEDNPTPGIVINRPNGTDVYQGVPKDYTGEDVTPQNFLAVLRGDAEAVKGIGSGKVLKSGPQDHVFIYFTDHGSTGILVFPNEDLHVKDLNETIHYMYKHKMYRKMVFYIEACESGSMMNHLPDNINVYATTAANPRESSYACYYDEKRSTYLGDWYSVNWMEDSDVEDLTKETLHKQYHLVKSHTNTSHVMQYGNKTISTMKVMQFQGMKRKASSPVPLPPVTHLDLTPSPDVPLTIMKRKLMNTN
T1 sequence (P55210 24-198 limits assumed): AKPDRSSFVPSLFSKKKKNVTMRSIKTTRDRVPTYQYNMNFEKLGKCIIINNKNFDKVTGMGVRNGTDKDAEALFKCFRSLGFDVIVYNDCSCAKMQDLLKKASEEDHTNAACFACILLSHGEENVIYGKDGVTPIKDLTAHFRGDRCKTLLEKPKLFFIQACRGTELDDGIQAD
T1 sequence (P55210 207-303 limits assumed): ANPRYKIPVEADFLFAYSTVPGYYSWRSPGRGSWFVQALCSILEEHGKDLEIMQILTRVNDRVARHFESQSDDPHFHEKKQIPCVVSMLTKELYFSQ

SMILES | selectivity of activation by caspase-7 [1] | activation by legumain [2] | labeling of FLICA-positive apoptotic cells ([3]; 2 μM probe, STS-induced apoptotic HeLa) | increase in Cy5.5 fluorescence of apoptotic relative to viable cells ([3]; 2 μM probe, STS-treated HeLa, flow cytometry) [fold] | effect of caspase inhibitor Z-VAD-fmk on the increased fluorescence ([3]; Z-VAD-fmk 50 μM) | blood half-life [4] [h] | time of nearly complete elimination after administration [4] [h] | r1 after activation higher than Dotarem [5] | r1 after activation higher than before activation [5] | r1 relaxivity upon caspase-3 activation [5] | r1 relaxivity without caspase-3 activation [5] [mM⁻¹ s⁻¹] | r1 after activation higher than before activation ([5]; listed as Gd-based MRI probe) [%] | r1 relaxivity upon caspase-3 activation ([5]; listed as Gd-based MRI probe) [mM⁻¹ s⁻¹] | T1 value after incubation with cathepsin B [6] | cellular uptake of Gd in STS-treated versus non-treated cells [7] [fold] | reduction of T1 value in STS-treated versus non-treated cell pellets [8]
CCSSC[C@@H](NC(=O)[C@H](CC(=O)O)NC(=O)[C@@H](NC(=O)[C@H](CCC(=O)O)NC(=O)[C@H](CC(=O)O)NC(C)=O)C(C)C)C(=O)N[C@@H](CCCCNC(=O)CCCCCN1C(=CC=CC=CC2=[N+](CC)c3ccc4c(S(=O)(=O)[O-])cc(S(=O)(=O)O)cc4c3C2(C)C)C(C)(C)c2c1ccc1c(S(=O)(=O)O)cc(S(=O)(=O)O)cc21)C(=O)Nc1ccc2nc(C3=N[C@@H](C(=O)NCCCOc4ccc5nc(C#N)ccc5c4)CS3)sc2c1 [C-SNAF] | high selectivity of the probe toward effector caspases-3 and -7 | neither lysosomal cysteine proteases cathepsin B nor legumain could significantly activate | efficiently labeled | ~13 | inhibited by Z-VAD-fmk | 1.0 ± 0.45 | ≤ 12 | – | – | – | – | – | – | – | – | –
CCSSCC(NC(=O)C(CC(=O)O)NC(=O)C(NC(=O)C(CCC(=O)O)NC(=O)C(CC(=O)O)NC(C)=O)C(C)C)C(=O)NC(CCCCNC(=O)CN1CCN(CC(=O)[O-])CCN(CC(=O)[O-])CCN(CC(=O)[O-])CC1)C(=O)Nc1ccc2nc(C3=NC(C(=O)NCCCOc4ccc5nc(C#N)ccc5c4)CS3)sc2c1.[Gd+3] (stereo not shown) [probe 15] (Ac-DEVDC(SEt)K(DOTA)[X1]-X2; configuration not given here) | – | – | – | – | – | – | – | about 510% | about 106% | approximately 29.3 mM^−1 s^−1 | 14.2 | 106 | 29.3 | No reduced T1 value | 6.6 | about 3 fold
